How the values were obtained:
E. coli K-12 BW25113 = assay: MIC / growth inhibition assay (end-point OD600), single agent; format: cell-based, Escherichia coli; details: for EC50: Escherichia coli, BW25113, end-point OD600 after 18 h, read-out: EC50 E. coli (K12 BW25113) Compound only
Text: (§1) Minimum inhibitory concentration (MIC) assays were used to evaluate the antimicrobial activity of compounds against Gram-negative (E. coli) and Gram-positive (S. aureus) bacteria. […] Gram-positive bacteria are more susceptible to small-molecule penetration, and compounds were therefore assessed for growth inhibition against the S. aureus SH1000 strain.
(§2) 2.1. Biological and biochemical methods
(§3) Bacterial strains and culture conditions
(§4) Strains utilized in the present study are detailed in Table S1. All strains used were cultivated on Mueller Hinton Agar (MHA) and grown to stationary-phase in Mueller Hinton Broth (MHB) at 37 °C for 16 h, with shaking at 180 r.p.m.
(§5) Minimum inhibitory concentration (MIC) assays
(§6) MIC assays were performed in 96 well plates and MICs were determined in accordance with the broth microdilution protocol.4 Strains grown to stationary-phase in MHB were adjusted to 5 x 10^5 colony-forming units (CFU)/mL in fresh MHB (100 µL/well) supplemented with DMSO to ensure a constant concentration of 0.5% (v/v) DMSO across all experiments. Where […]
(§7) or H2O2 (200 μM). Test compounds were prepared as two-fold serial dilutions. Cells were […]
(§8) as the lowest concentration with no visible bacterial growth, and the optical density at 600 nm (OD600) was recorded. OD600 measurements were background corrected against no-inocula control and normalized to DMSO control for dose-response analysis. The EC50 value mean and SEM were calculated from individual EC50 values from three biological replicates. […]

[1] = system: methicillin-resistant S. aureus (MRSA, USA300 JE2); assay: as above; format: cell-based, Staphylococcus aureus; details: for fold less potent against JE2 compared to SH1000: ratio of single-agent EC50 values
Text: as §1
Methicillin-resistant S. aureus (MRSA) is a multi-drug resistant bacterium responsible for a large number of nosocomial infections.[34] The emergence of community associated (CA)-MRSA capable of infection of healthy individuals highlights its significance and clinical relevance.[35]
as §2, §3, §4, §5, §6, §7, §8

S. aureus SH1000 = assay: as above; format: cell-based; details: Staphylococcus aureus, SH1000, 18 h, end-point OD600 after 18 h, read-out: EC50 S. aureus (SH1000) Compound only
Text: as §1, §2, §3, §4, §5, §6, §7, §8

[2] = system: methicillin-resistant S. aureus (MRSA, USA300 JE2); assay: Ciprofloxacin (CFX) potentiation in MRSA growth inhibition assay; format: cell-based, Staphylococcus aureus; details: for EC50: read-out: EC50 S. aureus (USA300 JE2) Compound + CFX (9.4 μM), in presence of half-MIC CFX (9.4 μM); for fold increase in potency of para- over meta-substituted analogue, potentiation by CFX: JE2 + CFX, 4 vs 1, 10 vs 7, 14 vs 13
Protocol: as §2, §3, §4, §5, §6, §7, §8

E. coli topoisomerase IV = molecular target: T1, E. coli topoisomerase IV (Escherichia coli, UniProt P0AFI2+P20083); assay: Topoisomerase IV supercoiling relaxation assay (pQE80L); format: biochemical; details: at 12.5 µM (compounds)
T1 construct: purchased Inspiralis
Protocol: 2.1. Biological and biochemical methods […]
E. coli DNA gyrase supercoiling assay (Inspiralis) was performed according to the manufacturer’s instructions, ensuring a constant concentration of 1% (v/v) DMSO. Samples were separated on a 1% (w/v) agarose gel prepared with Tris/Borate/EDTA (TBE) buffer (1 M Tris-borate, 20 mM EDTA, pH 8.0). Electrophoresis was performed at 100 V until the bromophenol blue dye had run >6 cm to ensure resolution of relaxed and supercoiled DNA.
The gel was stained with SYBR Safe DNA gel stain (Invitrogen, 1:10,000 dilution in TBE) for 30 min, and visualized on a Syngene Gel Doc system. Band intensity was quantified using ImageJ software and the fraction of supercoiled plasmid was determined as the ratio of the density of the supercoiled band to the total density. Values were background corrected against the no-gyrase control and normalized to DMSO control for dose-response analysis.
E. coli topoisomerase IV supercoiling relaxation assay (Inspiralis) was performed according to the manufacturer’s instructions, ensuring a constant concentration of 1% (v/v) DMSO.
Supercoiled pQE80L was prepared via plasmid purification and used as the substrate for the reaction. Reactions were analyzed as described for DNA gyrase assays. […]

MRSA (USA300 JE2) [3] = assay: Growth inhibition in the presence of mitomycin-C; format: cell-based, Staphylococcus aureus; details: read-out: EC50 Compound + MMC (0.40 µM); MRSA USA300 JE2, mitomycin-C 0.40 µM
Protocol: (§9) The analogue panel was further tested for potentiation of alternative DNA-damaging agents Mitomycin-C (MMC) and hydrogen peroxide (Table S2), which function via alkylation and oxidization DNA bases, respectively.
as §2, §3, §4, §5, §6, §7, §8

JE2 = assay: Synergy experiments with CFX (growth rate method, Chou-Talalay, CompuSyn); format: cell-based, Staphylococcus aureus; details: for Combination index (CI) with CFX: JE2, constant-ratio combination with CFX, CompuSyn; for EC50: Staphylococcus aureus, JE2, rate of exponential growth phase over 17 h at 37 °C
Protocol: A more precise method to determine EC50 values for individual compounds and combinations was used to increase accuracy for CI calculations. […]
Synergy experiments were performed as described for MIC assays. Two-fold serial dilutions […]
carried out at 37 °C, with shaking at 220 r.p.m. OD600 was recorded every 30 min over a 17 h period. Measurements were background corrected against the no-inocula control before a growth curve of OD600 against time was constructed. The gradient of the exponential phase was obtained by linear regression. Gradients were normalized against the smallest and largest value within the respective data set prior to analysis with the CompuSyn software (http://www.combosyn.com/) to calculate combination index (CI) and dose-reduction index (DRI) values for each drug combination. […]

MRSA (USA300 JE2) [4] = assay: Growth inhibition in the presence of H2O2; format: cell-based, Staphylococcus aureus; details: read-out: EC50 Compound + H2O2 (200 µM); MRSA USA300 JE2, H2O2 200 µM
Protocol: as §9, §2, §3, §4, §5, §6, §7, §8

[5] = Staphylococcus aureus, 18 h, read-out: EC50 S. aureus (USA300 JE2) Compound only, single agent, end-point OD600 after 18 h

T1 sequence (P0AFI2 whole entry): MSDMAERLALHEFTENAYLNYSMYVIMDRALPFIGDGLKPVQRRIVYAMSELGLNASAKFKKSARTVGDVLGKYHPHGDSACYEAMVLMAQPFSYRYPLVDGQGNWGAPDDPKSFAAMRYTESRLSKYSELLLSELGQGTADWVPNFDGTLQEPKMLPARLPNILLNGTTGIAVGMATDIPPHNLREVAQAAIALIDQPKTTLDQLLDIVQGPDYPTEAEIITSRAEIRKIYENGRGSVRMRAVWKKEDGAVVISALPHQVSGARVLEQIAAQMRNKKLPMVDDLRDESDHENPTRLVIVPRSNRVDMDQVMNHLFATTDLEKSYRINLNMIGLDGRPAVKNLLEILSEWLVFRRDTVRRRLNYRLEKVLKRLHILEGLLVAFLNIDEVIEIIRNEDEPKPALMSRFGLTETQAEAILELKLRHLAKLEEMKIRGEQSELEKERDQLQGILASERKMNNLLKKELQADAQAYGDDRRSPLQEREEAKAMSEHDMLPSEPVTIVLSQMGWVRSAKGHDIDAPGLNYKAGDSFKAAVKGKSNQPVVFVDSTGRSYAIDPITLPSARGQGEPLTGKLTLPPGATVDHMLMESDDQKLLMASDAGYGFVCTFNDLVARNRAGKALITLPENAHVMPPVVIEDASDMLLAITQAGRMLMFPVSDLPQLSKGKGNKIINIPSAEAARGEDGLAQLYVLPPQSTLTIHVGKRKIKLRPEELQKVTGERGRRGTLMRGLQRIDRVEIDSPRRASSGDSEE
T1 sequence (P20083 whole entry): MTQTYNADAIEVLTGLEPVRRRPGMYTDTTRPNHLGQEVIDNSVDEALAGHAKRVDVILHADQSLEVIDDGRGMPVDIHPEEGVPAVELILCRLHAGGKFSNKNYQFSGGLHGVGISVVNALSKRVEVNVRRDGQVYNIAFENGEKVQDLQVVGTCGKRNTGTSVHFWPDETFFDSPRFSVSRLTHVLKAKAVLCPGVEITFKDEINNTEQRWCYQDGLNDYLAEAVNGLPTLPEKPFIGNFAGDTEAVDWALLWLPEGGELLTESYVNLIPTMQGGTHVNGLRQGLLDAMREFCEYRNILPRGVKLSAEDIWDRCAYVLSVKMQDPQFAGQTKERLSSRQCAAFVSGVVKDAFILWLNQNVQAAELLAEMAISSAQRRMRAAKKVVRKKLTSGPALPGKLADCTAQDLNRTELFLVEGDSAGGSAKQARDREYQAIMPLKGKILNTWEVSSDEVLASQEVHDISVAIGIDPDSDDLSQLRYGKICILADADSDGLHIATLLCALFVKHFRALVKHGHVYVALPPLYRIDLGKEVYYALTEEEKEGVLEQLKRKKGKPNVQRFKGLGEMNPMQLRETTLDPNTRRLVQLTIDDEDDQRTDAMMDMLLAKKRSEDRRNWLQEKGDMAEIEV

SMILES	EC50 (E. coli K-12 BW25113) [nM]	EC50 [1, 5] [µM]	EC50 (S. aureus SH1000) [nM]	EC50 [2] [nM]	EC50 (MRSA (USA300 JE2) [3]) [nM]	EC50 (MRSA (USA300 JE2) [4]) [µM]	further results
CCn1cc(C(=O)O)c(=O)c2cnc(N3CCN(C(=S)Nc4cccc(C(F)(F)F)c4)CC3)nc21 [Compound 1, reference compound]	> 100000	6.9 ± 0.6	8200 ± 1700	1100 ± 100	3300 ± 600	6.5 ± 0.1	Inhibition of topoisomerase IV (E. coli topoisomerase IV): not inhibited and not; Combination index (CI) with CFX (JE2): 1.0; EC50 (JE2): 5.9 ± 0.2 µM
CCn1cc(C(=O)O)c(=O)c2cnc(N3CCN(C(=S)Nc4cccc(F)c4)CC3)nc21 [Compound 2]	> 100000	27 ± 0.4	6900 ± 400	730 ± 120	21000 ± 2200	24 ± 3	–
CCn1cc(C(=O)O)c(=O)c2cnc(N3CCN(C(=S)Nc4cc(C(F)(F)F)cc(C(F)(F)F)c4)CC3)nc21 [Compound 3]	> 100000	2.7 ± 0.6	3600 ± 400	620 ± 90	1500 ± 100	2.4 ± 0.2	–
CCn1cc(C(=O)O)c(=O)c2cnc(N3CCN(C(=S)Nc4ccc(C(F)(F)F)cc4)CC3)nc21 [Compound 4]	> 100000	4 ± 0.3	5200 ± 1100	240 ± 30	2900 ± 200	4.7 ± 0.9	fold increase in potency of para- over meta-substituted analogue, potentiation by CFX [2]: ~5 fold
CCn1cc(C(=O)O)c(=O)c2cnc(N3CCN(C(=S)Nc4cccc(Cl)c4)CC3)nc21 [Compound 5]	> 100000	~6	~6000	310 ± 20	4500 ± 1200	8.4 ± 0.2	EC50 ([1]; read-out: EC50 S. aureus (USA300 JE2) Compound only, single agent, end-point OD600 after 18 h): 6.9 ± 0.1 µM; fold increase in potency against JE2 in the presence of CFX compared to single agent ([2]; CFX 9.4 µM): ~20 fold; Inhibition of topoisomerase IV (E. coli topoisomerase IV): not; Combination index (CI) with CFX (JE2): 0.96; EC50 (JE2): 6.2 ± 0.1 µM
CCn1cc(C(=O)O)c(=O)c2cnc(N3CCN(C(=S)Nc4cc(Cl)cc(Cl)c4)CC3)nc21 [Compound 6]	> 100000	1.8 ± 0.1	2300 ± 300	120 ± 40	1500	2.5 ± 0.4	–
O=C(O)c1cn(C2CC2)c2cc(N3CCN(C(=S)Nc4cccc(C(F)(F)F)c4)CC3)c(F)cc2c1=O [Compound 7]	410	3.7 ± 0.5	190 ± 60	140	2800 ± 400	5.5 ± 0.6	fold less potent against JE2 compared to SH1000 [1]: > 20 fold
O=C(O)c1cn(C2CC2)c2cc(N3CCN(C(=S)Nc4cccc(F)c4)CC3)c(F)cc2c1=O [Compound 8]	240 ± 30	4.8 ± 0.9	80 ± 10	220 ± 50	3400 ± 900	4.6 ± 0.4	fold higher potency than other CFX derivatives in E. coli (E. coli K-12 BW25113): approximately 2 fold; fold less potent against JE2 compared to SH1000 [1]: > 20 fold
O=C(O)c1cn(C2CC2)c2cc(N3CCN(C(=S)Nc4cc(C(F)(F)F)cc(C(F)(F)F)c4)CC3)c(F)cc2c1=O [Compound 9]	390 ± 10	3.5 ± 0.4	1500 ± 300	470 ± 70	1800 ± 300	2.6 ± 0.3	fold more potent against E. coli than SH1000 (E. coli K-12 BW25113): ~5 fold
O=C(O)c1cn(C2CC2)c2cc(N3CCN(C(=S)Nc4cccc(Cl)c4)CC3)c(F)cc2c1=O [Compound 11]	460 ± 100	2.8 ± 0.1	120 ± 40	84 ± 7	2200 ± 600	3.2	fold less potent against JE2 compared to SH1000 [1]: > 20 fold
O=C(O)c1cn(C2CC2)c2cc(N3CCN(C(=S)Nc4cc(Cl)cc(Cl)c4)CC3)c(F)cc2c1=O [Compound 12]	420 ± 20	3.6 ± 0.4	84 ± 7	43 ± 11	800	2.9 ± 0.8	fold less potent against JE2 compared to SH1000 [1]: > 20 fold
O=C(O)c1cn(C2CC2)c2cc(N3CCN(C(=S)Nc4cccc([N+](=O)[O-])c4)CC3)c(F)cc2c1=O [Compound 13]	270 ± 20	> 25	110 ± 30	430 ± 90	–	–	–
O=C(O)c1cn(C2CC2)c2cc(N3CCN(C(=S)Nc4ccc([N+](=O)[O-])cc4)CC3)c(F)cc2c1=O [Compound 14]	260 ± 40	> 12.5	50 ± 8	49 ± 6	–	–	fold increase in potency of para- over meta-substituted analogue, potentiation by CFX [2]: ~10 fold
CCn1cc(C(=O)O)c(=O)c2cnc(N3CCN(C(=O)Nc4ccccc4)CC3)nc21 [Compound 15]	> 12500	–	> 12500	> 12500	–	–	EC50 ([1]; Staphylococcus aureus, single agent, end-point OD600 after 18 h, read-out: EC50 S. aureus (USA300 JE2) Compound only): > 12.5 µM; Effect of the presence of CFX on potency ([2]; JE2, CFX 9.4 µM): unaffected; Inhibition of topoisomerase IV (E. coli topoisomerase IV): not inhibited and not
CC1CN(c2cc3c(cc2F)c(=O)c(C(=O)O)cn3C2CC2)CCN1C(=S)Nc1ccc(C(F)(F)F)cc1 (centres unmarked) [Compound 16]	300 ± 60	3.9 ± 0.4	260 ± 40	18 ± 3	–	–	–
O=C(O)c1cn(C2CC2)c2cc(N3CCC(NC(=S)Nc4ccc(C(F)(F)F)cc4)C3)c(F)cc2c1=O (centres unmarked) [Compound 17]	2800 ± 400	53 ± 13	1600 ± 400	3200 ± 300	–	–	–
O=C(O)c1cn(C2CC2)c2cc(NCCNC(=S)Nc3ccc(C(F)(F)F)cc3)c(F)cc2c1=O [Compound 18]	> 100000	9.7 ± 1	7700 ± 1200	2500 ± 300	–	–	–
CC(C)(C)OC(=O)NCCNC(=O)c1cn(C2CC2)c2cc(N3CCN(C(=S)Nc4ccc(C(F)(F)F)cc4)CC3)c(F)cc2c1=O [Compound 19]	> 100000	> 100	> 100000	–	–	–	–
NCCNC(=O)c1cn(C2CC2)c2cc(N3CCN(C(=S)Nc4ccc(C(F)(F)F)cc4)CC3)c(F)cc2c1=O [Compound 20]	47000 ± 1000	78 ± 8	76000 ± 5000	–	–	–	–
OO [Compound H2O2, hydrogen peroxide, reference compound]	–	–	–	–	–	–	EC50 ([1]; single agent, end-point OD600 after 18 h, read-out: EC50 S. aureus (USA300 JE2) Compound only): 147 ± 11 µM
CO[C@@]12[C@H](COC(N)=O)C3=C(C(=O)C(C)=C(N)C3=O)N1C[C@@H]1N[C@@H]12 [MMC, Mitomycin-C, reference compound]	–	0.33 ± 0.01	–	–	–	–	–

From paper PMC6892255, “Identification of a potent small-molecule inhibitor of bacterial DNA repair that potentiates quinolone antibiotic activity in methicillin-resistant Staphylococcus aureus^” (Bioorganic & Medicinal Chemistry, 2019)
